Assay: Mouse brain uptake assay (pharmacokinetics and brain penetration after IV administration), 0-1 h, 3 time points
Assay type: in vivo, Male CD1 Mice
Conditions: male, CD1, brain and plasma; Mouse, 3 mg/kg IV, 0-1 h; read-out: Kp, uu (unbound brain/unbound plasma drug concentration ratio)
Protocol: Example 29: Pharmacokinetics and Brain Penetration Experiment to Determine Brain and Plasma Concentrations of Compounds After IV Administration to Male CD1 Mice or Male SD Rat
(§1) The study design (9 animals) consisted of administrating the drug (IV: 3 mg/kg (5 mL/kg) via tail vein injection) and collecting samples at terminal bleeding for plasma and brain at 0.083, 0.5 and 1 h. The blood collection was performed as follows: the animal was restrained manually and approximately 150 μL blood/time point was collected into a dipotassium EDTA tube via retro orbital puncture under anesthesia with isoflurane. The blood sample was put on ice and centrifuged to obtain a plasma sample (2000 g, 5 min under 4° C.) within 15 minutes. The brain collection was performed as follows: a mid-line incision was made in the animal's scalp and the skin was retracted. Using small bone cutters and rongeurs, the skull overlying the brain was removed. The brain was removed using a spatula and the brain rinsed with cold saline. The brain was placed in screw-top tubes, and the tubes were stored at −70° C. until analysis. The IV dosing solution was prepared in 50 mM citrate buffer (pH 4.0) at 0.6 mg/mL.
Plasma Sample Preparation:
(§2) An aliquot of 30 μL sample was added to 150 μL MeCN containing 50 ng/mL IS (Dexamethasone). The mixture was vortexed for 5 min and centrifuged at 14,000 rpm for 5 min. An aliquot of 5 μL supernatant was injected for LC-MS/MS analysis.
Brain Sample Preparation:
(§3) An aliquot of 30 μL brain homogenate (brain:PBS=1:3, w/v) sample was added to 150 μL IS in ACN (Dexamethasone, 50 ng/mL). The mixture was vortexed for 5 min and centrifuged at 14,000 rpm for 5 min. An aliquot of 5 μL supernatant was injected for LC-MS/MS analysis.
(§4) The sample analysis was performed on LCMS/MS-003 (API4000, triple quadruple) under the following conditions: positive ion, ESI, MRM detection using dexamethasone as internal standard. HPLC conditions: mobile phase A: H2O (0.025% formic acid (FA) with 1 mM NH4OAc); mobile phase B: MeOH (0.025% FA with 1 mM NH4OAc) on Waters X-Bridge C18 (2.1×50 mm, 2.5 μm) column at 60° C.

Question: Which Kp uu does the source give for Cc1cccnc1[C@@H]1CCC[C@H](c2nc3cccc(N4CCN(C)CC4)n3c2Cl)N1C [Compound I-18] here?
Answer: 0.43

Question: With Cc1cccnc1[C@@H]1CCC[C@H](c2nc3cccc(N4CCC(N(C)C)CC4)n3c2Cl)N1C [Compound I-114] as the compound, how does the Kp uu read?
Answer: 0.08

Question: Which Kp uu does the source give for Cc1cccnc1[C@@H]1CCC[C@H](c2nc3cccc(N4CCN(C(C)C)CC4)n3c2Br)N1C [Compound I-20] here?
Answer: 0.3

Question: For CCN1CCN(c2cccc3nc([C@H]4CCC[C@@H](c5ncccc5C)N4C)c(Br)n23)CC1 [Compound I-19], which Kp uu is on record?
Answer: 0.32

Same assay, conditions: male, CD1, mouse, brain and plasma, iv, 3 mg/kg; read-out: Kp (brain/plasma drug concentration ratio)

Question: With Cc1cccnc1[C@@H]1CCC[C@H](c2nc3cccc(N4CCN(C)CC4)n3c2Cl)N1C [Compound I-18] as the compound, how does the Kp read?
Answer: 11.8

Question: With Cc1cccnc1[C@@H]1CCC[C@H](c2cn3c(-c4cccnc4)cccc3n2)N1C [Compound I-6] as the compound, how does the Kp read?
Answer: 0.61

Question: Which Kp does the source give for Cc1cccnc1[C@@H]1CCC[C@H](c2nc3cccc(N4CCC(N(C)C)CC4)n3c2Cl)N1C [Compound I-114] here?
Answer: 0.76

Question: Which Kp does the source give for Cc1cccnc1[C@@H]1CCC[C@H](c2nc3cccc(N4CCN(C(C)C)CC4)n3c2Br)N1C [Compound I-20] here?
Answer: 6.29

Question: Which Kp does the source give for CCN1CCN(c2cccc3nc([C@H]4CCC[C@@H](c5ncccc5C)N4C)c(Br)n23)CC1 [Compound I-19] here?
Answer: 8.84

Same assay, conditions: male, CD1, plasma; Mouse, 3 mg/kg IV, 0-1 h, 3 time points

Question: For Cc1cccnc1[C@@H]1CCC[C@H](c2nc3cccc(N4CCN(C)CC4)n3c2Cl)N1C [Compound I-18], which clearance is on record?
Answer: 245 mL/min/kg

Question: With Cc1cccnc1[C@@H]1CCC[C@H](c2cn3c(-c4cccnc4)cccc3n2)N1C [Compound I-6] as the compound, how does the clearance read?
Answer: 48.3 mL/min/kg

Question: With Cc1cccnc1[C@@H]1CCC[C@H](c2nc3cccc(N4CCC(N(C)C)CC4)n3c2Cl)N1C [Compound I-114] as the compound, how does the clearance read?
Answer: 117 mL/min/kg

Question: With Cc1cccnc1[C@@H]1CCC[C@H](c2nc3cccc(N4CCN(C(C)C)CC4)n3c2Br)N1C [Compound I-20] as the compound, how does the clearance read?
Answer: 173 mL/min/kg

Question: With CCN1CCN(c2cccc3nc([C@H]4CCC[C@@H](c5ncccc5C)N4C)c(Br)n23)CC1 [Compound I-19] as the compound, how does the clearance read?
Answer: 223 mL/min/kg

Same assay, conditions: male, CD1, plasma; Mouse, 3 mg/kg IV, 0-1 h, 3 time points; read-out: t½ (converted)

Question: Which half-life does the source give for Cc1cccnc1[C@@H]1CCC[C@H](c2nc3cccc(N4CCN(C)CC4)n3c2Cl)N1C [Compound I-18] here?
Answer: 20.6 min

Question: For Cc1cccnc1[C@@H]1CCC[C@H](c2cn3c(-c4cccnc4)cccc3n2)N1C [Compound I-6], which half-life is on record?
Answer: 216 min

Question: For Cc1cccnc1[C@@H]1CCC[C@H](c2nc3cccc(N4CCC(N(C)C)CC4)n3c2Cl)N1C [Compound I-114], which half-life is on record?
Answer: 43.2 min

Question: Which half-life does the source give for Cc1cccnc1[C@@H]1CCC[C@H](c2nc3cccc(N4CCN(C(C)C)CC4)n3c2Br)N1C [Compound I-20] here?
Answer: 22.4 min

Question: For CCN1CCN(c2cccc3nc([C@H]4CCC[C@@H](c5ncccc5C)N4C)c(Br)n23)CC1 [Compound I-19], which half-life is on record?
Answer: 21.8 min

Same assay, conditions: male, CD1; Mouse brain, 3 mg/kg IV, time zero to 1 hr; read-out: AUClast (b)

Question: For Cc1cccnc1[C@@H]1CCC[C@H](c2nc3cccc(N4CCN(C)CC4)n3c2Cl)N1C [Compound I-18], which AUC(0-t) is on record?
Answer: 2060 ng·h/mL

Question: With Cc1cccnc1[C@@H]1CCC[C@H](c2cn3c(-c4cccnc4)cccc3n2)N1C [Compound I-6] as the compound, how does the AUC(0-t) read?
Answer: 326 ng·h/mL

Question: Which AUC(0-t) does the source give for Cc1cccnc1[C@@H]1CCC[C@H](c2nc3cccc(N4CCC(N(C)C)CC4)n3c2Cl)N1C [Compound I-114] here?
Answer: 205 ng·h/mL

Question: Which AUC(0-t) does the source give for Cc1cccnc1[C@@H]1CCC[C@H](c2nc3cccc(N4CCN(C(C)C)CC4)n3c2Br)N1C [Compound I-20] here?
Answer: 1520 ng·h/mL

Question: Which AUC(0-t) does the source give for CCN1CCN(c2cccc3nc([C@H]4CCC[C@@H](c5ncccc5C)N4C)c(Br)n23)CC1 [Compound I-19] here?
Answer: 1690 ng·h/mL

Same assay, conditions: male, CD1; Mouse plasma, 3 mg/kg IV, time zero to 1 hr; read-out: AUClast (p)

Question: For Cc1cccnc1[C@@H]1CCC[C@H](c2nc3cccc(N4CCN(C)CC4)n3c2Cl)N1C [Compound I-18], which AUC(0-t) is on record?
Answer: 175 ng·h/mL

Question: With Cc1cccnc1[C@@H]1CCC[C@H](c2cn3c(-c4cccnc4)cccc3n2)N1C [Compound I-6] as the compound, how does the AUC(0-t) read?
Answer: 531 ng·h/mL

Question: With Cc1cccnc1[C@@H]1CCC[C@H](c2nc3cccc(N4CCC(N(C)C)CC4)n3c2Cl)N1C [Compound I-114] as the compound, how does the AUC(0-t) read?
Answer: 267 ng·h/mL

Question: For Cc1cccnc1[C@@H]1CCC[C@H](c2nc3cccc(N4CCN(C(C)C)CC4)n3c2Br)N1C [Compound I-20], which AUC(0-t) is on record?
Answer: 241 ng·h/mL

Question: Which AUC(0-t) does the source give for CCN1CCN(c2cccc3nc([C@H]4CCC[C@@H](c5ncccc5C)N4C)c(Br)n23)CC1 [Compound I-19] here?
Answer: 191 ng·h/mL

Assay: Mouse brain uptake assay, 0-24 h, 4 time points
Assay type: in vivo
Conditions: male, CD1, Mouse brain, 3 mg/kg IV, 4 time points, read-out: AUClast (b)
Protocol: as §1, §2, §3, §4
A similar experiment was performed with 4 time points taken from 0-24 h.

Question: Which AUC(0-t) does the source give for Cc1cccnc1[C@@H]1CCC[C@H](c2cn3c(-c4cccnc4)cccc3n2)N1C [Compound I-6] here?
Answer: 3170 ng·h/mL

Same assay, conditions: male, CD1, Mouse plasma, 3 mg/kg IV, 4 time points, read-out: AUClast (p)

Question: With Cc1cccnc1[C@@H]1CCC[C@H](c2cn3c(-c4cccnc4)cccc3n2)N1C [Compound I-6] as the compound, how does the AUC(0-t) read?
Answer: 1040 ng·h/mL

Same assay, conditions: male, CD1, brain and plasma, Mouse, 3 mg/kg IV, 4 time points

Question: Which Kp does the source give for Cc1cccnc1[C@@H]1CCC[C@H](c2cn3c(-c4cccnc4)cccc3n2)N1C [Compound I-6] here?
Answer: 3.05

Same assay, conditions: male, CD1, plasma, Mouse, 3 mg/kg IV, 4 time points

Question: Which clearance does the source give for Cc1cccnc1[C@@H]1CCC[C@H](c2cn3c(-c4cccnc4)cccc3n2)N1C [Compound I-6] here?
Answer: 48.3 mL/min/kg

Same assay, conditions: male, CD1, plasma, Mouse, 3 mg/kg IV, 4 time points, read-out: t½ (converted)

Question: Which half-life does the source give for Cc1cccnc1[C@@H]1CCC[C@H](c2cn3c(-c4cccnc4)cccc3n2)N1C [Compound I-6] here?
Answer: 216 min
